Experimental data as given in paper PMC11428108 (Frontiers in Molecular Neuroscience, 2024).

Columns and labels:
[1] = test system: male C57BL/6J mice; assay: Intracranial self-stimulation (ICSS) thresholds in mice with saline or nicotine osmotic minipumps; type: in vivo; conditions: SR9883 10 mg kg^−1 IP
Source text: Mice were anesthetized with a mixture of isoflurane (1–3%) and oxygen vapor then positioned in a stereotaxic frame in the flat-skull position (Kopf Instruments) ([Fowler et al., 2013]; [Johnson et al., 2008]). A stainless-steel bipolar electrode (Plastics One) was implanted into the lateral hypothalamus according to the following stereotaxic coordinates: Anterior/Posterior: −0.5 mm from bregma; […] Dorsal/Ventral: −5.0 mm from brain surface ([Fowler et al., 2013]; [Johnson et al., 2008]; [Paxinos and Franklin, 2001]). Mice were permitted 72 h to recover from surgery prior to training in the ICSS procedure. Mice were permitted to respond for intracranial electrical stimulation according to a modification of the discrete-trial current-threshold procedure developed by Kornetsky and colleagues ([Gill et al., 2004]), as previously described ([Fowler et al., 2013]; [Johnson et al., 2008]). […] The frequency of the stimulation was selected for each mouse so that current-intensity thresholds were within 25 to 400 μA, permitting threshold elevations and reductions to be reliably detected. This frequency for each mouse was held constant throughout the experiment. […] The time between the onset of the non-contingent stimulus and a positive response was recorded as the response latency. […] Effects of intraperitoneal injections of SR9883 on ICSS thresholds were assessed >7 days after minipump implantation. Concentration-response curves of SR9883 actions in nAChR-expressing HEK cells and oocytes were fitted to the Hill equation using a nonlinear least squares curve fit method and efficacy and potency values were calculated as previously described ([Wang et al., 2015]). […] For the ICSS threshold experiment, percentages of baseline reward threshold scores were calculated by expressing the absolute threshold scores as a percentage of the scores obtained during baseline. […] Response latency data were analyzed in the same manner as the threshold data. […] Effects of SR9883 on responding for food pellets in rats was analyzed by a two-tailed paired t test. […]

[2] = test system: α4β2*, (α4)2(β2)2α5, and (α4)2(β2)2β3 nAChRs; assay: FLEXstation assay, summary over α4β2* stoichiometries with low-affinity agonist binding sites; type: cell-based, human
Source text: Human embryonic kidney (HEK) cell lines stably expressing human (α4)2(β2)2β2/α4 (α4β2*) nAChRs, (α4)2(β2)2α5 nAChRs, (α4)2(β2)2β3 nAChRs, (α3)2(β4)2α3/β4 (α3β4*) nAChRs, (α3)2(β2)2α3/β2 (α3β2*) nAChRs, (α3)2(β4)2α5 nAChRs, or (α3)2(β2)2α5 nAChRs were maintained as described previously ([Wang et al., 2015]; [Kuryatov et al., 2005]; [Caligiuri et al., 2022]). The FLEXstation bench top scanning fluorometer from Molecular Devices was used to assay nAChR function in these cells, according to published protocols ([Wang et al., 2015]; [Kuryatov et al., 2005]). The membrane potential kit (Molecular Devices) was used according to the manufacturer’s protocols. Serial dilutions of SR9883 were manually added to the assay plate 15 min prior to recording. […] Potency and efficacy were calculated using the Hill equation as described previously ([Wang et al., 2015]).
Concentration-response curves of SR9883 actions in nAChR-expressing HEK cells and oocytes were fitted to the Hill equation using a nonlinear least squares curve fit method and efficacy and potency values were calculated as previously described ([Wang et al., 2015]). […] For the ICSS threshold experiment, percentages of baseline reward threshold scores were calculated by expressing the absolute threshold scores as a percentage of the scores obtained during baseline. […] Response latency data were analyzed in the same manner as the threshold data. […]

[3] = test system: male Wistar rats; assay: Intravenous nicotine self-administration (FR5TO20); type: in vivo; conditions: for Numbers of nicotine infusions earned vs vehicle: nicotine 0.03 mg kg^−1 per infusion
Protocol: Operant chambers (Med Associates, East Fairfield, VT, United States) were used to assess responding by rats for food pellets and intravenous nicotine infusions. […] All rats were food-restricted to maintain their body weight at approximately 85% that of free-feeding weights. They were then trained to press an active lever for 45 mg food pellets on a fixed ratio 5 time-out 20 s (FR5TO20) schedule of reinforcement. […] Rats responded for food rewards until a reliable responding was achieved, defined as >90 pellets earned per 60 min session across three consecutive sessions. […] Rats were anesthetized using 1–3% isoflurane inhalation in oxygen and catheters were implanted into the left jugular vein. The catheter was passed subcutaneously to a polyethylene assembly mounted on the animals’ back. […] During the time period, responding on the active lever had no scheduled consequence.
Concentration-response curves of SR9883 actions in nAChR-expressing HEK cells and oocytes were fitted to the Hill equation using a nonlinear least squares curve fit method and efficacy and potency values were calculated as previously described ([Wang et al., 2015]). Plasma and brain levels of SR9983 after oral administration were compared using a two-tailed paired t test. […] For the ICSS threshold experiment, percentages of baseline reward threshold scores were calculated by expressing the absolute threshold scores as a percentage of the scores obtained during baseline. The baseline values were the mean thresholds on the three sessions prior to drug injections. Response latency data were analyzed in the same manner as the threshold data. […] Effects of SR9883 on responding for food pellets in rats was analyzed by a two-tailed paired t test. […] Significant main or interaction effects in ANOVAs were followed by Bonferroni or Newman–Keuls post-hoc tests as appropriate. All statistical analyses were performed using GraphPad Prism software with α set to 0.05.

In the case of N#Cc1cccc(-n2nnc(-c3cccnc3)n2)c1 [SR9883, 3-(5-(pyridin-3-yl)-2H-tetrazol-2-yl)benzonitrile], the ICSS response latencies ([1]; minipumps delivering either saline or nicotine) is reported as “had no effect”, the ICSS thresholds ([1]; nicotine-delivering osmotic minipumps (24 mg kg^−1 per day), p = 0.0278 vs vehicle) is reported as “elevated” and the ICSS thresholds ([1]; saline-delivering osmotic minipumps) is reported as “had no effect”. The “Concentration inducing maximal enhancement of nAChR signaling” value ([2]; EC20-30 nicotine) was ~ 3 μM, the EC50 ([2]; enhancement of the effect of nicotine, read-out: EC50 values, range over stoichiometries) was 0.2 to 0.4 µM and the “Numbers of nicotine infusions earned vs vehicle” value ([3]; SR9883 5 mg kg^−1 IP, p = 0.0021) was “decreased”. The “Numbers of nicotine infusions earned vs vehicle” value ([3]; SR9883 10 mg kg^−1 IP, p < 0.0001) was “decreased”, the “Responding on the inactive lever” value ([3]; SR9883 5 and 10 mg kg^−1 IP, p = 0.1274, not significant) was “tended to be decreased” and the “Residual deficits in nicotine responding across daily sessions after treatment” value ([3]; baseline sessions prior to each SR9883 treatment) was “no residual deficits”.
